Where “and” joins values, the source holds several entries; their conditions need not be identical. Equal values may be shown once. Entries after “also recorded” stand apart in the source; their conditions may differ.

Common to all, as to type: cell-based
Common to all, as to parameters: To assess STING degradation and recovery in human foreskin fibroblasts HFF-1 cells; host or cells: HFF-1 human foreskin fibroblasts

Assay [1] has as its target T1, STING (Homo sapiens, UniProt Q86WV6). Nature of the assay: Western Blot of STING agonist activity of compounds as single agent in HFF-1 cells. The following applies: compound as single agent, no activation. Here is the method:
S1 is a STING ligand. […] Any standard method known in the art may be used to determine STING agonist activity. For example, STING agonist activity (or lack thereof) can be measured as described in Examples 11 and/or Example 12. For example, following the method described in Example 11, cells may be incubated with a compound comprising a S1 STING ligand. The cells may be lysed and Western Blotting performed. Western blots may be probed for phospho-STING and/or phospho-TBK1. Cells incubated with STING ligands which are not agonists will not result in detectable phospho-STING or phospho-TBK1 using the methods outlined above and in Examples 11. In another example, following the method described in Example 12, human skin fibroblasts may be pretreated for 2hours with a serial dilution of a test compounds, for example a compound comprising an S1 ligand, prior to stimulation with a STING agonist (e.g. 300 nM GSK STING agonist). Supernatants may then be harvested after STING agonist stimulation (e.g. after 20 h stimulation). IFN-a/b may be measured in the supernatants using HEK-Blue IFN-α/β bioassay (Invivogen) to determine a half-maximal inhibitory concentration of a test compound.
(§1) To assess whether S1 STING ligands inhibit STING activation, primary human skin fibroblasts (Figure 9) or HFF-1 cells (Figure 10) were treated with various compounds which comprise only an S1 ligand domain and a Linker domain before undergoing Western Blot analysis as described below.
(§2) Cell culture methods as described above for primary human skin fibroblast and HFF-1 cells were used in the current experiments. Methods as described above for H596, H1650 and HaCat cells were applied for cell lysis and western blotting.
In Figure 10A, HFF-1 cells were treated with 5 µM of compounds A11, A25, A26, or A30, or 0.5 µM STING antagonist control for 15 min followed prior to addition of 300 nM diABZI and incubation for 2 h or 5 h. The cells were lysed and analysed on WB. As additional controls, cells were left untreated (UT), treated with Lipofectamine (Lipo control) or with compounds A26 or A30 as single agent. The WB membrane was probed for p-STING, STING, p-IRF3, p-TBK1, and Vinculin.
(§3) In Figure 10B, similar experiments were performed as for Figure 10A, except that cells were activated with 8 µg/mL cGAMP instead of diABZI c3. In addition, the controls used in this set of experiments was A11, A25, A26 and A30 as a single agent with no cGAMP activation.

Assay [2] deals with T1, STING. Nature of the assay: Western Blot of diABZI-induced STING activation in HFF-1 cells (Figure 10A). The following applies: 5 µM for 15 min, then 300 nM diABZI for 2 h or 5 h, versus diABZI c3 alone. Here is the method:
as §1, §2
In Figure 10A, HFF-1 cells were treated with 5 µM of compounds A11, A25, A26, or A30, or 0.5 µM STING antagonist control for 15 min followed prior to addition of 300 nM diABZI and incubation for 2 h or 5 h. The cells were lysed and analysed on WB. As additional controls, cells were left untreated (UT), treated with Lipofectamine (Lipo control) or with compounds A26 or A30 as single agent. […]
Background: In western blotting, separated proteins are transferred to a membrane and probed.

Assay [3] addresses T1, STING. Nature of the assay: Western Blot of cGAMP-induced STING activation in HFF-1 cells (Figure 10B). The following applies: 5 µM for 15 min, then 8 µg/mL cGAMP for 2 h or 5 h, versus cGAMP alone. Here is the method:
as §1, §2, §3

Assay [4] has as its target T1, STING. Nature of the assay: Inhibition of STING-agonist-induced IFN-β and CXCL10 release (Figure 11). The settings on record: for CXCL10 media concentration: Figure 11B; for IFN media concentration: Figure 11A; for secretion of Functional Type I IFN / secretion of CXCL10: human skin fibroblasts, 5 µM, 0.3 µM diABZI; for secretion of Functional Type I IFN: Figure 11 (A); for secretion of CXCL10: Figure 11 (B). Here is the method:
HFF-1 cells were assessed for inhibition of STING-agonist-induced IFN-β and CXCL10 release in cells treated with Compounds A9 and A11.
HFF-1 cells were cultured as described in Example 7 above except that cells were seeded in a 24-well plate at 30,000 cells/well. […]

Assay [5] concerns the target T1, STING. Nature of the assay: Western Blot of diABZI-induced STING activation in primary human skin fibroblasts (Figure 9). The settings on record: 5 µM; for LC3B lipidation / P-TBK1: 0.3 µM diABZI; for P-TBK1 / P-STING: versus diABZI c3 only; for P-STING: before (-2h, -1h), simultaneously with, or 15 minutes after 0.3 µM diABZI. Here is the method: as §1, §2
Cells were incubated with A9 or A11 for 1 or 2 hours before addition of diABZI c3, treated with test compound and diABZI c3 simultaneously, or treated with A9 or A11 after 15 minutes incubation with diABZI c3. As a control, cells were also treated with diABZI c3 alone.

[6] abbreviates: 5 µM compound 1 to 2 hours before, simultaneously with, or 15 minutes after 0.3 µM diABZI c3.

T1 sequence (Q86WV6 whole entry): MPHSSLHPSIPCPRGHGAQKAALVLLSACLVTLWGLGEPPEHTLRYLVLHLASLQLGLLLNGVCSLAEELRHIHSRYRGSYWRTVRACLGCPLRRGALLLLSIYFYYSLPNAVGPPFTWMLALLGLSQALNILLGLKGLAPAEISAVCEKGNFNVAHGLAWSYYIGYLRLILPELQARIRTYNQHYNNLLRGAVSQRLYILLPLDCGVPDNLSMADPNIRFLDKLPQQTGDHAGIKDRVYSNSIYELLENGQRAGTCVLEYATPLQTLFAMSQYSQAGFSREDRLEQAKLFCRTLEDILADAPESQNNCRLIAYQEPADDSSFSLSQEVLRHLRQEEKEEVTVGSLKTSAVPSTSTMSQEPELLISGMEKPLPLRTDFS

As for `CCn1nc(C)cc1C(=O)N=c1n(C)c2cc(C(N)=O)ccc2n1CCC(CCn1c(=NC(=O)c2cc(C)nn2CC)n(C)c2cc(C(N)=O)ccc21)OCC(=O)N1CCC[C@H]1c1ccccc1` (stereo partly drawn) [A25, 1-(3-{2-[(S)-2-Phenyl-1-pyrrolidinyl]-2-oxoethoxy}-5-{5-carbamoyl-2-[(1-ethyl-3-methyl-5-pyrazolyl)carbonylimino]-3-methyl-2,3-dihydro-1H-1,3-benzimidazol-1-yl}pentyl)-2-[(1-ethyl-3-methyl-5-pyrazolyl)carbonylimino]-3-methyl-2,3-dihydro-1H-1,3-benzimidazole-5-carboxamide], the “phosphorylation of STING, IRF1 or TBK1” value on STING [1] is “do not induce STING, IRF3 or TBK1 phosphorylation and activation alone”. Besides, on STING [2], the “STING, TBK1 and IRF3 phosphorylation” value is listed as “lower”. The “STING, TBK1 and IRF1 phosphorylation” value at STING [3] is on record as “lower”.

Take `CCn1nc(C)cc1C(=O)Nc1nc2cc(C(N)=O)cc(OC)c2n1C/C=C/Cn1c(NC(=O)c2cc(C)nn2CC)nc2cc(C(N)=O)cc(OCCCN3CCOCC3)c21` [diABZI c3, reference compound]: the CXCL10 media concentration at STING [4] (cells treated with diABZI c3 alone) was ~ 60 pg/mL. For the same compound, the IFN media concentration on STING [4] (cells treated with only diABZI c3) was ~ 200 U/mL and ~ 100 U/mL.

As for `CCn1nc(C)cc1C(=O)N=c1n(C)c2cc(C(N)=O)ccc2n1CCC(CCn1c(=NC(=O)c2cc(C)nn2CC)n(C)c2cc(C(N)=O)ccc21)OCC(=O)N1CCc2cc(OC)ccc2C1` (stereo not drawn) [A9, 1-(5-{5-Carbamoyl-2-[(1-ethyl-3-methyl-5-pyrazolyl)carbonylimino]-3-methyl-2,3-dihydro-1H-1,3-benzimidazol-1-yl}-3-[2-(6-methoxy-1,2,3,4-tetrahydro-2-isoquinolyl)-2-oxoethoxy]pentyl)-2-[(1-ethyl-3-methyl-5-pyrazolyl)carbonylimino]-3-methyl-2,3-dihydro-1H-1 ,3-benzimidazole-5-carboxamide], at STING [5], the LC3B lipidation entry is listed as “reduced LC3B lipidation; also recorded: decrease in LC3B lipidation”, the P-TBK1 result was “reduced P-TBK1 intensity” and the P-STING entry is “reduced intensity; also recorded: decrease in P-STING”. In addition, on STING [4] (setting [6]), the IFN media concentration is reported as ~ 100 U/mL. At STING [4], the “secretion of Functional Type I IFN” value was “inhibits secretion” and the “secretion of CXCL10” value is “inhibits secretion”.

Take `CCn1nc(C)cc1C(=O)N=c1n(C)c2cc(C(N)=O)ccc2n1CCC(CCn1c(=NC(=O)c2cc(C)nn2CC)n(C)c2cc(C(N)=O)ccc21)OCC(=O)N1CCC[C@H]1c1cccc(OC)c1` (stereo partly drawn) [A11, 1-(3-{2-[(S)-2-(3-Methoxyphenyl)-1-pyrrolidinyl]-2-oxoethoxy}-5-{5-carbamoyl-2-[(1-ethyl-3-methyl-5-pyrazolyl)carbonylimino]-3-methyl-2,3-dihydro-1H-1,3-benzimidazol-1-yl}pentyl)-2-[(1-ethyl-3-methyl-5-pyrazolyl)carbonylimino]-3-methyl-2,3-dihydro-1H-1,3-benzimidazole-5-carboxamide]: at STING [1], the “phosphorylation of STING, IRF1 or TBK1” value was “do not induce STING, IRF3 or TBK1 phosphorylation and activation alone”. Moreover, at STING [5], the LC3B lipidation result is reported as “reduced LC3B lipidation”, the P-TBK1 result is reported as “reduced P-TBK1 intensity” and the P-STING result is “reduced intensity; also recorded: decrease in P-STING”. For the same compound, the “STING, TBK1 and IRF3 phosphorylation” value on STING [2] was “lower; also recorded: inhibited STING, IRF3 and TBK1 phosphorylation and activation”. Further, the “STING, TBK1 and IRF1 phosphorylation” value on STING [3] is “lower; also recorded: inhibited STING, IRF3 and TBK1 phosphorylation and activation”. Also, on STING [4] (setting [6]), the IFN media concentration is -10 - 20 U/mL. The same compound showed a CXCL10 media concentration on STING [4] (5 µM compound before, simultaneously with, or after diABZI c3, filled bars) of -10 to 20 pg/mL. At STING [4], the “secretion of Functional Type I IFN” value was “inhibits secretion” and the “secretion of CXCL10” value was “inhibits secretion”.

Turning to `CCn1nc(C)cc1C(=O)N=c1n(C)c2cc(C(N)=O)ccc2n1CCC(CCn1c(=NC(=O)c2cc(C)nn2CC)n(C)c2cc(C(N)=O)ccc21)OCC(=O)N1CCC[C@H]1C(=O)N1CCc2cc(OC)ccc2C1` (stereo partly drawn) [A26, 1-[3-(2-{(S)-2-[(6-Methoxy-1,2,3,4-tetrahydro-2-isoquinolyl)carbonyl]-1-pyrrolidinyl}-2-oxoethoxy)-5-{5-carbamoyl-2-[(1-ethyl-3-methyl-5-pyrazolyl)carbonylimino]-3-methyl-2,3-dihydro-1H-1,3-benzimidazol-1-yl}pentyl]-2-[(1-ethyl-3-methyl-5-pyrazolyl)carbonylimino]-3-methyl-2,3-dihydro-1H-1,3-benzimidazole-5-carboxamide], the “phosphorylation of STING, IRF1 or TBK1” value at STING [1] was “do not induce STING, IRF3 or TBK1 phosphorylation and activation alone”. The “STING, TBK1 and IRF3 phosphorylation” value at STING [2] is “lower; also recorded: inhibited STING, IRF3 and TBK1 phosphorylation and activation”. For the same compound, at STING [3], the “STING, TBK1 and IRF1 phosphorylation” value was “lower; also recorded: inhibited STING, IRF3 and TBK1 phosphorylation and activation”.

For `CCn1nc(C)cc1C(=O)N=c1n(C)c2cc(C(N)=O)ccc2n1CCC(CCn1c(=NC(=O)c2cc(C)nn2CC)n(C)c2cc(C(N)=O)ccc21)OCC(=O)N1CCOC[C@@H]1c1ccccc1` (stereo partly drawn) [A30, 1-(3-{2-[(S)-3-Phenyl-4-morpholinyl]-2-oxoethoxy}-5-{5-carbamoyl-2-[(1-ethyl-3-methyl-5-pyrazolyl)carbonylimino]-3-methyl-2,3-dihydro-1H-1,3-benzimidazol-1-yl}pentyl)-2-[(1-ethyl-3-methyl-5-pyrazolyl)carbonylimino]-3-methyl-2,3-dihydro-1H-1,3-benzimidazole-5-carboxamide], the “phosphorylation of STING, IRF1 or TBK1” value at STING [1] is “do not induce STING, IRF3 or TBK1 phosphorylation and activation alone”. In addition, the “STING, TBK1 and IRF3 phosphorylation” value on STING [2] was “lower; also recorded: inhibited STING, IRF3 and TBK1 phosphorylation and activation”. On STING [3], the “STING, TBK1 and IRF1 phosphorylation” value was “lower; also recorded: inhibited STING, IRF3 and TBK1 phosphorylation and activation”.

(Values after patent EP4663204A1, “COMPOUNDS USEFUL FOR THE MODULATION OF THE ACTIVITY OF STING” (Sulis Therapeutics ApS, priority 2024, dated 2025).)
